# Results: ChEMBL document CHEMBL5131569, “SAGE-718: A First-in-Class N-Methyl-d-Aspartate Receptor Positive Allosteric Modulator for the Potential Treatment of Cognitive Impairment” (J Med Chem, 2022)
# Key:
# in vivo = settings: Sprague-Dawley, rat, brain and plasma
# Description: Ratio of AUC(0 to 72 hrs) in Sprague-Dawley rat brain to plasma by LC-MS/MS analysis
# [1] = Clearance in CD-1 mouse by LC-MS/MS analysis; type: ADME; settings: in vivo
# [2] = Metabolic stability in monkey hepatocytes assessed as clearance at 10 uM measured upto 120 mins by LC-MS/MS analysis; type: ADME, cell-based, Macaca mulatta, Hepatocyte; settings: rhesus monkey, 2 h
# [3] = molecular target: Glutamate NMDA receptor; GRIN1/GRIN2A (Homo sapiens, UniProt Q05586+Q12879); assay: Positive allosteric modulation of recombinant human GluN1/GluN2A receptor stably expressed in HEK293 cells assessed as increase in glycine/L-glutamate-induced channel current at -70 mV holding potential by whole cell patch clamp method; type: cell-based
# Sequence of Glutamate NMDA receptor; GRIN1/GRIN2A (Q12879 whole entry, other chains not shown): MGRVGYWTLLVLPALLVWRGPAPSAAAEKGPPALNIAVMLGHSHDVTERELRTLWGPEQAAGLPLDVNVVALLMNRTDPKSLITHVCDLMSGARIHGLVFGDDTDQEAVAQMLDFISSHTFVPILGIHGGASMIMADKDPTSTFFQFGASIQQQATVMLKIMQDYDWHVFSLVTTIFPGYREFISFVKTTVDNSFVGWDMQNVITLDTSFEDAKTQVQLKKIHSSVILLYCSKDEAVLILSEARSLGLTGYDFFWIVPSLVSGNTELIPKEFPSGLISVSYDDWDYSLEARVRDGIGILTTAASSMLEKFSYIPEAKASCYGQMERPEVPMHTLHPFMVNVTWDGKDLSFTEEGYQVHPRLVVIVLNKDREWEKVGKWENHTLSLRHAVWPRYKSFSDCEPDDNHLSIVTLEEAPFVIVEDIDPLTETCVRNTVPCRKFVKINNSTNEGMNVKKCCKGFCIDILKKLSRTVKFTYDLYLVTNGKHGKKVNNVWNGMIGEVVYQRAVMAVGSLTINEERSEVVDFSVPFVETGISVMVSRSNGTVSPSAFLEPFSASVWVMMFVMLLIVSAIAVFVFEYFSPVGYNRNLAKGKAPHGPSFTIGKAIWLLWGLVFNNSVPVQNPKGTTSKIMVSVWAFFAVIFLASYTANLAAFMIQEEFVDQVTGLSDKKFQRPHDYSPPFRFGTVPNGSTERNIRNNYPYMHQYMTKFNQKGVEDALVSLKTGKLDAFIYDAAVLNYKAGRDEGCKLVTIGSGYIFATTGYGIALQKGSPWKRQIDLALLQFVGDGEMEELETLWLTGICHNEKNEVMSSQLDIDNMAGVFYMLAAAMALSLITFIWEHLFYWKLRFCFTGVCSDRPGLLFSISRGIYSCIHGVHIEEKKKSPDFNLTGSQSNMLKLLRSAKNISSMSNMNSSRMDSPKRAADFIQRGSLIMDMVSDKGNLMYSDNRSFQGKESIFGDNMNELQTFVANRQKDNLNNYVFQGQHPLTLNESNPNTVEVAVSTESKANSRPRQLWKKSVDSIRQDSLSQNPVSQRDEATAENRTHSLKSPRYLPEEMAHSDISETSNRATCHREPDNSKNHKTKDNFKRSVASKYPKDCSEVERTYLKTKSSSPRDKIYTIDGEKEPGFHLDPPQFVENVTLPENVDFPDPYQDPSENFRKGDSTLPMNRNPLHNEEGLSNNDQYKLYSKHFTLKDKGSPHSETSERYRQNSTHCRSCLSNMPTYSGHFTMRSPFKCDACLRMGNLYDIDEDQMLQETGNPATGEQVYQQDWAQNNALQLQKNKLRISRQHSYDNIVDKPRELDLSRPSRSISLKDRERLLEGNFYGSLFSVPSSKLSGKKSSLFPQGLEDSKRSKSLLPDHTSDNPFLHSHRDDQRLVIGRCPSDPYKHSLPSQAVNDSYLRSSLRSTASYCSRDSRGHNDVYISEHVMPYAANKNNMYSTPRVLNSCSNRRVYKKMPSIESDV
# Cytochrome P450 3A4 = Cytochrome P450 3A4 (Homo sapiens, UniProt P08684); assay: Inhibition of CYP3A4 (unknown origin); type: ADME
# Sequence of Cytochrome P450 3A4 (P08684 whole entry): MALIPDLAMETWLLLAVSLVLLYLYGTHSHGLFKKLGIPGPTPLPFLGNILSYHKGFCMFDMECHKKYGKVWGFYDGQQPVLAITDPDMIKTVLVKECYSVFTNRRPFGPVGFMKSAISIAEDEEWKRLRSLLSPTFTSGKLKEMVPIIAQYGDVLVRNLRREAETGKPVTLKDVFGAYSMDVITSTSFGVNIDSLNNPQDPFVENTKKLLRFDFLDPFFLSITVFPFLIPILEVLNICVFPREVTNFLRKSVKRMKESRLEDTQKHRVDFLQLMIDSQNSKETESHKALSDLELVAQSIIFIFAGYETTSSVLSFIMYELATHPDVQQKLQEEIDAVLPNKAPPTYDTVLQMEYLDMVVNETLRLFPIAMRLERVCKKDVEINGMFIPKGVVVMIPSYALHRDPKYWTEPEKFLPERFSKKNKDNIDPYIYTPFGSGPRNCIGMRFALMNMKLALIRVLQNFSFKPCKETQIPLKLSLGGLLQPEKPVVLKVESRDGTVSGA
# [4] = Metabolic stability in human liver microsomes assessed as intrinsic clearance at 10 uM preincubated for 5 mins followed by NADPH addition and measured upto 65 mins by LC-MS/MS analysis; type: ADME, Microsome; settings: time < 70 min, read-out: CLH
# Cytochrome P450 2D6 = Cytochrome P450 2D6 (Homo sapiens, UniProt P10635); assay: Inhibition of CYP2D6 (unknown origin); type: ADME
# Sequence of Cytochrome P450 2D6 (P10635 whole entry): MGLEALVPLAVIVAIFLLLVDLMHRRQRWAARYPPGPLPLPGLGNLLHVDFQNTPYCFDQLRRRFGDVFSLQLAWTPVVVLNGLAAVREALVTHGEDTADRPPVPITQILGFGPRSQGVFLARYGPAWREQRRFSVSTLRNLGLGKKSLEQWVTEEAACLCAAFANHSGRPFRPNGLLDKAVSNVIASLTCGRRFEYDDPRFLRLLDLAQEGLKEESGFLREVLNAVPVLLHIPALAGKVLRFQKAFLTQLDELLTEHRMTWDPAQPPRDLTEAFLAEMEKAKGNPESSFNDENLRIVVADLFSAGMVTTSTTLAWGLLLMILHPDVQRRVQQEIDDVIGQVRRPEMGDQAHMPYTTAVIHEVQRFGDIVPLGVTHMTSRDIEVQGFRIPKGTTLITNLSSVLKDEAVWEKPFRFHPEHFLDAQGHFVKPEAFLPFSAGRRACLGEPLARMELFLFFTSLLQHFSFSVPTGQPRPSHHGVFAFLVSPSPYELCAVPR
# [5] = Metabolic stability in mouse liver microsomes assessed as intrinsic clearance at 10 uM preincubated for 5 mins followed by NADPH addition and measured upto 65 mins by LC-MS/MS analysis; type: ADME, Microsome; settings: time < 70 min, read-out: CLH
# [6] = Clearance in Beagle dog by LC-MS/MS analysis; type: ADME, Canis lupus familiaris; settings: in vivo
# Mus musculus [7] = assay: Reversal of DOI-induced hyperlocomotion in CD-1 mouse assessed as reduction in rearing at 3 mg/kg, ip administered 90 mins prior to DOI induction and measured upto 30 mins post DOI treatment (reference value: 59.8 +/- 8.6 Counts); type: functional; settings: time <= 120 min, 2 h
# Mus musculus [8] = assay: Reversal of DOI-induced hyperlocomotion in CD-1 mouse assessed as reduction in rearing at 5 mg/kg, ip administered 90 mins prior to DOI induction and measured upto 30 mins post DOI treatment (reference value: 59.8 +/- 8.6 Counts); type: functional; settings: time <= 120 min, 2 h
# [9] = molecular target: Sodium channel protein type 5 subunit alpha (Homo sapiens, UniProt Q14524); assay: Inhibition of NaV1.5 (unknown origin)
# Sequence of Sodium channel protein type 5 subunit alpha (Q14524 whole entry): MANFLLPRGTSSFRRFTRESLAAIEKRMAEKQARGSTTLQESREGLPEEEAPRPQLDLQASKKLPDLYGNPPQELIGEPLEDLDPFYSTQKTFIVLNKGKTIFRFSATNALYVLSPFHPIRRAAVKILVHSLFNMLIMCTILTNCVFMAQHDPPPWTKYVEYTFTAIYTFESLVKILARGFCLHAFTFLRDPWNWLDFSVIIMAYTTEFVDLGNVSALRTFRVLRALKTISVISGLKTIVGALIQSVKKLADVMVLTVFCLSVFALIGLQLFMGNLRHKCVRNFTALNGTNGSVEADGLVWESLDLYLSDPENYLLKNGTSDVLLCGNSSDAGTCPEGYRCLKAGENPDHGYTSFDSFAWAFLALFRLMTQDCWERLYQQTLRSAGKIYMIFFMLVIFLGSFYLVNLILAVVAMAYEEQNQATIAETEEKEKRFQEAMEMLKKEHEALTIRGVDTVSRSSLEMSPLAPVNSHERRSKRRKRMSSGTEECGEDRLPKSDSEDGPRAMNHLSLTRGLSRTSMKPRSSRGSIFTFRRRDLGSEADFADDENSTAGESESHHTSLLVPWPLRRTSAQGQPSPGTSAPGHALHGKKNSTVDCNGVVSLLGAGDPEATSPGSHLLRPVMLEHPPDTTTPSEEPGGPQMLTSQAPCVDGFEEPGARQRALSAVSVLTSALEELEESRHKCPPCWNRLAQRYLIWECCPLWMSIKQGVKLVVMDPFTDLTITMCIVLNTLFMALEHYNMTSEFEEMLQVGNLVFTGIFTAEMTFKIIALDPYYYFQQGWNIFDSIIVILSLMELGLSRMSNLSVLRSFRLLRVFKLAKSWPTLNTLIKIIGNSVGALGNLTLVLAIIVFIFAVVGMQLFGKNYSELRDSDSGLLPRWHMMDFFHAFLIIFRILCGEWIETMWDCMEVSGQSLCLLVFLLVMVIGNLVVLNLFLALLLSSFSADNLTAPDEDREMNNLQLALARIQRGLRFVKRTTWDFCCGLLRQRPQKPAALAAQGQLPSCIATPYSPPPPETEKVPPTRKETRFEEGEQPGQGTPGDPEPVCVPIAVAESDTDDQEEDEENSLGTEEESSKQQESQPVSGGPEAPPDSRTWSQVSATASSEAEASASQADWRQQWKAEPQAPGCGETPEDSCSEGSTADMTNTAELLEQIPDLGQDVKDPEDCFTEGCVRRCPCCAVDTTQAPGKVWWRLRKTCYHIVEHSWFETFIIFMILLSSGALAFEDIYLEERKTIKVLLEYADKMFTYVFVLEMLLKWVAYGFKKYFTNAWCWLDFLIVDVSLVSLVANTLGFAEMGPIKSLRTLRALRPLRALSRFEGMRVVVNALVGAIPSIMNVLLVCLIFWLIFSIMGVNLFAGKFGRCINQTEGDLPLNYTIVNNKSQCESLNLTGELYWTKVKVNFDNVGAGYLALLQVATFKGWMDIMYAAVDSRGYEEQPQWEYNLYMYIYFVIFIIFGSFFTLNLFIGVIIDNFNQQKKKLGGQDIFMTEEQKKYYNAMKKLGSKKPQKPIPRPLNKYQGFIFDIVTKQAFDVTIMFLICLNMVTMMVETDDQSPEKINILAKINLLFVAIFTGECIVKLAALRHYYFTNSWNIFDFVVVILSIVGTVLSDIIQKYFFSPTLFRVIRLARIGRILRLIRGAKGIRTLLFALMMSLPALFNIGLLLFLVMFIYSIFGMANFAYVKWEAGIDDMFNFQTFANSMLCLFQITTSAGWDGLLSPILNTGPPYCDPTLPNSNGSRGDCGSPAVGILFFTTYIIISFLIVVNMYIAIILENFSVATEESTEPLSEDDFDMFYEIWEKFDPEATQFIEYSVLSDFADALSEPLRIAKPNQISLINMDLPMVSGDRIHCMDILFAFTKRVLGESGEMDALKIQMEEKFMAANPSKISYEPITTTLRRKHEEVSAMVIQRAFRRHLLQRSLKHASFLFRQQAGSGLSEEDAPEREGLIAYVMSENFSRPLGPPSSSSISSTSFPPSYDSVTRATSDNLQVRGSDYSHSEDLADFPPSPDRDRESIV
# [10] = Drug concentration in CD-1 mouse brain at 10 mg/kg, ip administered for 90 mins; type: ADME, organism-based; settings: read-out: Ct
# [11] = Metabolic stability in rat hepatocytes assessed as clearance at 10 uM measured upto 120 mins by LC-MS/MS analysis; type: ADME, cell-based, Hepatocyte; settings: 2 h
# [12] = molecular target: Potassium voltage-gated channel subfamily A member 5 (Homo sapiens, UniProt P22460); assay: Inhibition of Kv1.5 (unknown origin) by patch clamp method
# Sequence of Potassium voltage-gated channel subfamily A member 5 (P22460 whole entry): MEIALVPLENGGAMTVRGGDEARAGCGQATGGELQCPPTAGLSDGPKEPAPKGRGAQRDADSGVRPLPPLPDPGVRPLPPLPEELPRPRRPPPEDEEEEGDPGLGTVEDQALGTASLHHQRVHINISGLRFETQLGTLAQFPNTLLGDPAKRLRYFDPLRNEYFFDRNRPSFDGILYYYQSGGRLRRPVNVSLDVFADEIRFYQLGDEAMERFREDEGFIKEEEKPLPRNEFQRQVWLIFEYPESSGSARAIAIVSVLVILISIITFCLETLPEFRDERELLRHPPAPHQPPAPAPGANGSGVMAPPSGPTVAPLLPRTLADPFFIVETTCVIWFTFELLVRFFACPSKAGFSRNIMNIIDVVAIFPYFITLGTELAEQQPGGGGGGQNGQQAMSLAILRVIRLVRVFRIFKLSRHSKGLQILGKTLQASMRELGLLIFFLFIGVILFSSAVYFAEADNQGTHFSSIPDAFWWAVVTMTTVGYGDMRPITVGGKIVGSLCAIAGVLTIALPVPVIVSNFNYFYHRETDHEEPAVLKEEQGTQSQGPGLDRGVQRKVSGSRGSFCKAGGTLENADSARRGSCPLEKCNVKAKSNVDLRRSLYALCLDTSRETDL
# Mus musculus [13] = assay: Reversal of DOI-induced hyperlocomotion in CD-1 mouse assessed as reduction in distance travel at 7.5 mg/kg, ip administered 90 mins prior to DOI induction and measured upto 30 mins post DOI treatment (reference value: 7.8 +/- 0.8 meter); type: functional; settings: time <= 120 min, 2 h
# [14] = Drug concentration in CD-1 mouse plasma at 3 mg/kg, ip administered for 90 mins; type: ADME, organism-based
# Cytochrome P450 2B6 = molecular target: T1, Cytochrome P450 2B6 (Homo sapiens, UniProt P20813); assay: Inhibition of CYP2B6 (unknown origin); type: ADME
# T1 sequence (P20813 whole entry): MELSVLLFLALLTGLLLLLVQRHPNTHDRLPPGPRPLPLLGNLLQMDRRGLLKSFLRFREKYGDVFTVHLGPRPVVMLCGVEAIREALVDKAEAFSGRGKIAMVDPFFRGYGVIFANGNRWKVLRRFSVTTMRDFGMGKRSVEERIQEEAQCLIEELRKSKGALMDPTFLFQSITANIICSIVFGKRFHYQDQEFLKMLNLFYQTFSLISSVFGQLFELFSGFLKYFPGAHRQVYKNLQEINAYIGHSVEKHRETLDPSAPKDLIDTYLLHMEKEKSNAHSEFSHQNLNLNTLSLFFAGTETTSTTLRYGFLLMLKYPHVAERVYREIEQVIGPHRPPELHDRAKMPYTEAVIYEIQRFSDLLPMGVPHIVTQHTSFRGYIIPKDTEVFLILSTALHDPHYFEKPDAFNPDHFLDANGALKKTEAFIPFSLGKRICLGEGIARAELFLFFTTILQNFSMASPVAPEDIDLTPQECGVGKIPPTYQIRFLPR
# [15] = Plasma protein binding in rat after 15 mins by equilibrium dialysis method; type: ADME, cell-free; settings: read-out: PPB (converted)
# [16] = Drug concentration in CD-1 mouse plasma at 5 mg/kg, ip administered for 90 mins; type: ADME, organism-based
# [17] = Clearance in Sprague-Dawley rat by LC-MS/MS analysis; type: ADME; settings: in vivo
# Mus musculus [18] = assay: Reversal of DOI-induced hyperlocomotion in CD-1 mouse assessed as reduction in rearing at 7.5 mg/kg, ip administered 90 mins prior to DOI induction and measured upto 30 mins post DOI treatment (reference value: 59.8 +/- 8.6 Counts); type: functional; settings: time <= 120 min, 2 h
# Cytochrome P450 1A2 = molecular target: T2, Cytochrome P450 1A2 (Homo sapiens, UniProt P05177); assay: Inhibition of CYP1A2 (unknown origin); type: ADME
# T2 sequence (P05177 whole entry): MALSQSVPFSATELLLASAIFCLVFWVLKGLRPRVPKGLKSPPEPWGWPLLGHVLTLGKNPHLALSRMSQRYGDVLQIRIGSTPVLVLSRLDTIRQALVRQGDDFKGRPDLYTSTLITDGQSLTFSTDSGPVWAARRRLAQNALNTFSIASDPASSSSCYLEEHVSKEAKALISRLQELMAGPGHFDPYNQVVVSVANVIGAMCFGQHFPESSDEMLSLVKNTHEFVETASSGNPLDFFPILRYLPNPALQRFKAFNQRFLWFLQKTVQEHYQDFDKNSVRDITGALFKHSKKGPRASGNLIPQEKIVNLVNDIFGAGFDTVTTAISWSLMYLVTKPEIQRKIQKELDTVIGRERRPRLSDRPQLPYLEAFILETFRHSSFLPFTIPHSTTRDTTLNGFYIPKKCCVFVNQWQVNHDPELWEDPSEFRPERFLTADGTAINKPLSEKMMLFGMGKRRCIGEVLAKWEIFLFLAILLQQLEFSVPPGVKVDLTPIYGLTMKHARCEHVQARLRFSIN
# [19] = Metabolic stability in dog liver microsomes assessed as intrinsic clearance at 10 uM preincubated for 5 mins followed by NADPH addition and measured upto 65 mins by LC-MS/MS analysis; type: ADME, Canis lupus familiaris, Microsome; settings: time < 70 min, read-out: CLH
# [20] = Metabolic stability in human hepatocytes assessed as clearance at 10 uM measured upto 120 mins by LC-MS/MS analysis; type: ADME, cell-based, Hepatocyte; settings: 2 h
# [21] = Metabolic stability in dog hepatocytes assessed as clearance at 10 uM measured upto 120 mins by LC-MS/MS analysis; type: ADME, cell-based, Canis lupus familiaris, Hepatocyte; settings: 2 h
# [22] = Plasma protein binding in human after 15 mins by equilibrium dialysis method; type: ADME, cell-free; settings: read-out: PPB (converted)
# [23] = Drug concentration in CD-1 mouse brain at 7.5 mg/kg, ip administered for 90 mins; type: ADME, organism-based; settings: read-out: Ct
smiles,measurement,setting,value
C[C@H](CC[C@](C)(O)C(F)(F)F)[C@H]1CC[C@H]2[C@@H]3CC=C4C[C@@](C)(O)CC[C@]4(C)[C@H]3CC[C@]12C [DALZANEMDOR],Kp,in vivo,5.3
same,clearance,[1],5 mL/min/kg
same,CLH,[2],1.1 L/h/kg
same,EC50,[3],86 nM
same,IC50,Cytochrome P450 3A4,> 100 µM
same,microsomal CLint at 10 µM,[4],10 µL/min/mg
same,IC50,Cytochrome P450 2D6,> 100 µM
same,microsomal CLint at 10 µM,[5],< 1 µL/min/mg
same,clearance,[6],3.33 mL/min/kg
same,Activity,Mus musculus [7],52.9 Counts
same,Activity,Mus musculus [8],27.1 Counts
same,IC50,[9],> 30 µM
same,concentration at 1.5 h,[10],1610 ng/g
same,CLH,[11],1.1 L/h/kg
same,IC50,[12],> 30 µM
same,Activity,Mus musculus [13],0.4 m
same,concentration at 1.5 h,[14],577 ng/mL
same,IC50,Cytochrome P450 2B6,> 100 µM
same,fraction unbound at 0.25 h,[15],0.022
same,concentration at 1.5 h,[16],1550 ng/mL
same,clearance,[17],10 mL/min/kg
same,Activity,Mus musculus [18],6.1 Counts
same,IC50,Cytochrome P450 1A2,> 100 µM
same,microsomal CLint at 10 µM,[19],4.7 µL/min/mg
same,CLH,[20],0.4 L/h/kg
same,CLH,[21],0.9 L/h/kg
same,fraction unbound at 0.25 h,[22],0.015
same,concentration at 1.5 h,[23],1190 ng/g
